Results as given in patent US8729091B2, “4-phenoxy-nicotinamide or 4-phenoxy-pyrimidine-5-carboxamide compounds” (Hoffmann-La Roche Inc., priority 2010, dated 2014).

Target: T1, human GPBAR1 receptor (Homo sapiens, UniProt Q8TDU6)
T1 construct: expressed in transfected cells
T1 sequence (Q8TDU6 1-330): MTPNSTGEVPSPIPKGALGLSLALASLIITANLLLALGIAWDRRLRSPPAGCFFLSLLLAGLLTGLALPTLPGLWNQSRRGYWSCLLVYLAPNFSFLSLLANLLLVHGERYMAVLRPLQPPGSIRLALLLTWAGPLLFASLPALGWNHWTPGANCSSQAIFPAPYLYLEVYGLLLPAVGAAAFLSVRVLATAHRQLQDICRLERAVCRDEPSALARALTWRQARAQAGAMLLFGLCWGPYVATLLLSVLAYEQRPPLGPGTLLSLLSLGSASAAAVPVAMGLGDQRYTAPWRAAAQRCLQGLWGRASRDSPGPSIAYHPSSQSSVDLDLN
Assay: functional cAMP assay in CHO-dhfr(minus) cells expressing human GPBAR1 receptors
Type: cell-based
Conditions: cAMP increase (TR-FRET) in CHO-dhfr(minus) cells expressing human GPBAR1; compounds incubated 30 min at 30° C.
In short: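 Agonist cAMP read-out: stable GPBAR1 CHO-dhfr− clone, 30 min compound exposure at 30° C following 30 min IBMX (1 mM) preincubation in Krebs Ringer bicarbonate. Time-resolved energy-transfer detection gives EC50; parental CHO cells serve as counter-screen.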

| SMILES | EC50 |
| --- | --- |
| Cc1cc(Oc2cc(Cl)c(C(=O)NCC(=O)O)cc2Cl)c(C(=O)N2CCN(C3CC3)c3ccccc32)cn1 [Example 70, {2,5-Dichloro-4-[5-(4-cyclopropyl-3,4-dihydro-2H-quinoxaline-1-carbonyl)-2-methyl-pyridin-4-yloxy]-benzoylamino}-acetic acid] | 400 nM |
| Cc1cc(Oc2cc(Cl)c(C(=O)Nc3nnn[nH]3)cc2Cl)c(C(=O)N2CCN(C3CC3)c3ccccc32)cn1 [Example 71, 2,5-Dichloro-4-[5-(4-cyclopropyl-3,4-dihydro-2H-quinoxaline-1-carbonyl)-2-methyl-pyridin-4-yloxy]-N-(1H-tetrazol-5-yl)-benzamide] | 100 nM |
| Cc1cc(Oc2cc(Cl)c(C(=O)NCc3nnn[nH]3)cc2Cl)c(C(=O)N2CCN(C3CC3)c3ccccc32)cn1 [Example 72, 2,5-Dichloro-4-[5-(4-cyclopropyl-3,4-dihydro-2H-quinoxaline-1-carbonyl)-2-methyl-pyridin-4-yloxy]-N-(1H-tetrazol-5-ylmethyl)-benzamide] | 400 nM |
| Cc1cc(Oc2cc(Cl)ccc2Cl)c(C(=O)N2CCN(C3CC3)c3ccccc32)c(Cl)n1 [Example 73, [2-Chloro-4-(2,5-dichloro-phenoxy)-6-methyl-pyridin-3-yl]-(4-cyclopropyl-3,4-dihydro-2H-quinoxalin-1-yl)-methanone] | 50 nM |
| O=C(c1cnc(Cl)cc1Oc1cc(Cl)ccc1Cl)N1CCCc2ccccc21 [Example 74, [6-Chloro-4-(2,5-dichloro-phenoxy)-pyridin-3-yl]-(3,4-dihydro-2H-quinolin-1-yl)-methanone] | 22 nM |
| O=C(c1c[n+]([O-])ccc1Oc1cc(Cl)ccc1Cl)N1CCN(C2CC2)c2ccccc21 [Example 75, (4-Cyclopropyl-3,4-dihydro-2H-quinoxalin-1-yl)-[4-(2,5-dichloro-phenoxy)-1-oxy-pyridin-3-yl]-methanone] | 10 nM |
| O=C(c1cncnc1Oc1cc(Cl)ccc1Cl)N1CCCc2cc(F)ccc21 [Example 77, [4-(2,5-Dichloro-phenoxy)-pyrimidin-5-yl]-(6-fluoro-3,4-dihydro-2H-quinolin-1-yl)-methanone] | 400 nM |
| O=C(c1cncnc1Oc1cc(Cl)ccc1Cl)N1CCNc2ccccc21 [Example 78, [4-(2,5-Dichloro-phenoxy)-pyrimidin-5-yl]-(3,4-dihydro-2H-quinoxalin-1-yl)-methanone] | 300 nM |
| COc1ncccc1N(C)C(=O)c1cncnc1Oc1cc(Cl)ccc1Cl [Example 80, 4-(2,5-Dichloro-phenoxy)-pyrimidine-5-carboxylic acid (2-methoxy-pyridin-3-yl)-methyl-amide] | 90 nM |
